Results from the supplement of paper PMC13380429.

Columns and labels:
Conditions in all cases: 72 h
U2OS [1] = experiment: cell viability relative to DMSO; higher = less toxic
Calu-3 [2] = experiment: as above
Caco-2 [3] = experiment: as above
Vero E6 [4] = experiment: as above
HepG2 [5] = experiment: as above
U2OS [6] = experiment: relative viability EC50 (midpoint between 100% and the lowest measured viability); higher = less toxic
Calu-3 [7] = experiment: as above
Caco-2 [8] = experiment: as above
Vero E6 [9] = experiment: as above
HepG2 [10] = experiment: as above
U2OS [11] = experiment: drug sensitivity score (DSS) for viability; higher = more toxic; extreme values may be limits of the assay
Calu-3 [12] = experiment: as above
Caco-2 [13] = experiment: as above
Vero E6 [14] = experiment: as above
HepG2 [15] = experiment: as above

Row | Structure (SMILES) | cell viability (U2OS [1]; 1 nM) [%] | cell viability (U2OS [1]; 10 nM) [%] | cell viability (U2OS [1]; 100 nM) [%] | cell viability (U2OS [1]; 1000 nM) [%] | cell viability (U2OS [1]; 10000 nM) [%] | cell viability (Calu-3 [2]; 1 nM) [%] | cell viability (Calu-3 [2]; 10 nM) [%] | cell viability (Calu-3 [2]; 100 nM) [%] | cell viability (Calu-3 [2]; 1000 nM) [%] | cell viability (Calu-3 [2]; 10000 nM) [%] | cell viability (Caco-2 [3]; 1 nM) [%] | cell viability (Caco-2 [3]; 10 nM) [%] | cell viability (Caco-2 [3]; 100 nM) [%] | cell viability (Caco-2 [3]; 1000 nM) [%] | cell viability (Caco-2 [3]; 10000 nM) [%] | cell viability (Vero E6 [4]; 1 nM) [%] | cell viability (Vero E6 [4]; 10 nM) [%] | cell viability (Vero E6 [4]; 100 nM) [%] | cell viability (Vero E6 [4]; 1000 nM) [%] | cell viability (Vero E6 [4]; 10000 nM) [%] | cell viability (HepG2 [5]; 1 nM) [%] | cell viability (HepG2 [5]; 10 nM) [%] | cell viability (HepG2 [5]; 100 nM) [%] | cell viability (HepG2 [5]; 1000 nM) [%] | cell viability (HepG2 [5]; 10000 nM) [%] | relative viability EC50 (U2OS [6]) [µM] | relative viability EC50 (Calu-3 [7]) [µM] | relative viability EC50 (Caco-2 [8]) [µM] | relative viability EC50 (Vero E6 [9]) [µM] | relative viability EC50 (HepG2 [10]) [µM] | drug sensitivity score (U2OS [11]) | drug sensitivity score (Calu-3 [12]) | drug sensitivity score (Caco-2 [13]) | drug sensitivity score (Vero E6 [14]) | drug sensitivity score (HepG2 [15])
1 | COCCN1CCN(Cc2ccc(-c3n[nH]c4c3C(=O)c3c(NC(=O)NN5CCOCC5)cccc3-4)cc2)CC1 | 102 | 107 | 94.5 | 9.8 | 19 | 105 | 109 | 86.5 | 39 | 55.8 | 97.9 | 102 | 91.1 | 49 | 55 | 97.8 | 102 | 98.2 | 13.1 | 12.5 | 107 | 99.8 | 51 | 15.4 | 11.3 | 0.269 | 0.165 | 0.186 | 0.306 | 0.0894 | 17.1 | 13.4 | 10.8 | 16 | 21.9
2 | CN(C)C/C=C(/c1ccc(Br)cc1)c1cccnc1 [zimelidine] | 89.6 | 97.5 | 91.3 | 100 | 90.3 | 99.7 | 107 | 96.6 | 99.2 | 93 | 100 | 98.9 | 90.6 | 93.6 | 101 | 101 | 100 | 102 | 96.5 | 100 | 103 | 97.8 | 102 | 94.2 | 102 | > 10 | > 10 | > 10 | > 10 | > 10 | 0 | 0 | 0 | 0 | 0
3 | CC(=O)Nc1cccc(Nc2ncnc(N3CCC(OCc4ccc(OC(F)(F)F)cc4)CC3)n2)c1C [TC-N-1752] | 96 | 98.7 | 95.2 | 94.4 | 99.3 | 93.9 | 102 | 87.1 | 97.8 | 107 | 94.7 | 97.8 | 94.5 | 101 | 80.4 | 95.8 | 102 | 100 | 94.4 | 107 | 105 | 95.8 | 93 | 104 | 31.5 | > 10 | > 10 | > 10 | > 10 | 3.47 | 0 | 0 | 0.5 | 0 | 3.4
4 | Cc1ccc(Cl)cc1N(CC(=O)Nc1c(F)cccc1F)S(C)(=O)=O [FPH1-(BRD-6125)] | 97.7 | 103 | 105 | 101 | 97.8 | 110 | 93.4 | 97.8 | 105 | 87.3 | 104 | 97.2 | 111 | 99.7 | 107 | 98.3 | 103 | 97.6 | 97.2 | 99.1 | 100 | 107 | 104 | 94.5 | 108 | > 10 | > 10 | > 10 | > 10 | > 10 | 0 | 0 | 0 | 0 | 0
5 | COc1ccccc1CC(=N)N1C[C@@H]2C(=O)CCC(c3ccccc3)(c3ccccc3)[C@@H]2C1 | 103 | 95.1 | 101 | 101 | 93.8 | 94.1 | 88.4 | 98.3 | 109 | 86.6 | 96.6 | 96.5 | 95.3 | 109 | 98.4 | 94.3 | 101 | 94.7 | 95.9 | 110 | 93 | 95.9 | 88.2 | 106 | 105 | > 10 | > 10 | > 10 | > 10 | > 10 | 0 | 0 | 0 | 0 | 0
6 | O=c1ccc2ccc(O)c(O)c2o1 [daphnetin] | 111 | 108 | 101 | 102 | 99.4 | 101 | 111 | 102 | 99.9 | 110 | 105 | 105 | 104 | 107 | 90.5 | 106 | 100 | 98.3 | 93 | 101 | 102 | 105 | 87.3 | 87.5 | 82.1 | > 10 | > 10 | > 10 | > 10 | > 10 | 0 | 0 | 0 | 0 | 3.3
7 | CCCCS(=O)(=O)N[C@@H](Cc1ccc(OCCCCC2CCNCC2)cc1)C(=O)O [tirofiban] | 95.5 | 98.5 | 98.7 | 101 | 105 | 94.5 | 84.1 | 96.3 | 105 | 110 | 94 | 99.9 | 98.3 | 104 | 107 | 94.8 | 93.5 | 93.7 | 86.3 | 101 | 99.1 | 102 | 104 | 91.5 | 99.6 | > 10 | > 10 | > 10 | > 10 | > 10 | 0 | 0 | 0 | 0 | 0
8 | COc1ccccc1OCC(O)CO (stereo not given) [guaifenesin] | 105 | 98.8 | 97 | 97.2 | 100 | 99.2 | 105 | 101 | 108 | 95.2 | 102 | 84.5 | 101 | 91.2 | 99.5 | 105 | 106 | 105 | 105 | 99.5 | 100 | 99.8 | 98.7 | 103 | 94.7 | > 10 | > 10 | > 10 | > 10 | > 10 | 0 | 0 | 0 | 0 | 0
9 | Cc1ccc(-c2cn3c4c(sc3n2)CCCC4)cc1 [pifithrin-cyclic] | 102 | 101 | 101 | 102 | 98.5 | 98.3 | 105 | 100 | 109 | 107 | 104 | 93 | 91.2 | 105 | 92.9 | 119 | 96.5 | 109 | 102 | 97.1 | 105 | 99.1 | 105 | 108 | 91.7 | > 10 | > 10 | > 10 | > 10 | > 10 | 0 | 0 | 0 | 0 | 0
10 | CC(=O)OCC1=C(C(=O)O)N2C(=O)[C@@H](NC(=O)CSc3ccncc3)[C@H]2SC1 [cephapirin] | 96.6 | 99.6 | 93.8 | 94.6 | 104 | 98.9 | 92.3 | 90.9 | 101 | 97.7 | 93.9 | 109 | 94.8 | 97.6 | 96.1 | 95.6 | 98 | 95.6 | 97.1 | 102 | 104 | 91.1 | 102 | 93.3 | 103 | > 10 | > 10 | > 10 | > 10 | > 10 | 0 | 0 | 0 | 0 | 0
11 | CC(C)N(CCNC(=O)CN1CCCC1=O)C(C)C [pramiracetam] | 98.8 | 93.2 | 103 | 95.6 | 105 | 95.7 | 103 | 109 | 100 | 103 | 94.6 | 93.6 | 114 | 96.4 | 98.9 | 93.9 | 97 | 94.4 | 99.7 | 108 | 101 | 100 | 97.6 | 107 | 104 | > 10 | > 10 | > 10 | > 10 | > 10 | 0 | 0 | 0 | 0 | 0
12 | CN1CCC(=C2c3ccccc3CCn3c(C=O)cnc32)CC1 [alcaftadine] | 108 | 101 | 101 | 97.7 | 99.6 | 99.3 | 99.5 | 100 | 87.4 | 105 | 98.1 | 90.6 | 93.8 | 98.5 | 110 | 89.4 | 99.4 | 87.1 | 91.6 | 107 | 92.7 | 97.2 | 103 | 101 | 104 | > 10 | > 10 | > 10 | > 10 | > 10 | 0 | 0 | 0 | 0 | 0
13 | C=C(C)[C@@H]1CC[C@]2(C(=O)O)CC[C@]3(C)[C@H](CC[C@@H]4[C@@]5(C)CC[C@H](OC(=O)CC(C)(C)C(=O)O)C(C)(C)[C@@H]5CC[C@]43C)[C@@H]12 [bevirimat-dimeglumine] | 99.4 | 98.5 | 99.6 | 98.2 | 96.8 | 99.1 | 103 | 102 | 92.9 | 110 | 92 | 95.6 | 94.1 | 102 | 94.9 | 96.8 | 103 | 96.9 | 94.7 | 102 | 91.3 | 99.5 | 103 | 94.1 | 96.7 | > 10 | > 10 | > 10 | > 10 | > 10 | 0 | 0 | 0 | 0 | 0
14 | C/C=C/c1cc(OC)c(OC)cc1OC [alpha-asarone] | 97.3 | 101 | 93.9 | 100 | 100 | 94.6 | 99.8 | 102 | 94 | 105 | 87.7 | 108 | 88.3 | 118 | 93.5 | 109 | 86.1 | 99.8 | 101 | 104 | 91.3 | 107 | 91.9 | 93.3 | 90.3 | > 10 | > 10 | > 10 | > 10 | > 10 | 0 | 0 | 0 | 0 | 0
